Results on eight molecules are retold here after patent US20190262469A1 (priority 2015, published 2019).

Values after ≈ are worked out from the molar mass of the structure shown. Where no end group is shown, it is not given here. A value given as a limit tells only on which side of the number the result lay.

Data set [1] has as its system E. coli ER2420 with pACYC177 or pACYC184. The format is cell-based.
The test system of the next data set is E. coli ER2420/pACYC177. The experiment in a line: microbe, parasite or virus in culture. The format is cell-based. To be noted: Escherichia coli, test array/20-well test strips (FIG. 34, 35).
For data set [2] the following is noted: buffer; cited from earlier work.
The conditions of data set [3]: in vivo; cited from earlier work.
The next data set concerns alphaviruses. The note with it: cited from earlier work.
The target in data set [4] is T1, human ephrin B2 (EB2) expressed on cells (CHO-K1 transfected to express ephrin B2) (human, UniProt P52799 28-333).
T1 construct: whole, on cells; Cellular receptor for Nipah and Hendra viruses; also called CHO-K1/EB2; CHO-K1/ephrin B2
T1 sequence (P52799 28-333): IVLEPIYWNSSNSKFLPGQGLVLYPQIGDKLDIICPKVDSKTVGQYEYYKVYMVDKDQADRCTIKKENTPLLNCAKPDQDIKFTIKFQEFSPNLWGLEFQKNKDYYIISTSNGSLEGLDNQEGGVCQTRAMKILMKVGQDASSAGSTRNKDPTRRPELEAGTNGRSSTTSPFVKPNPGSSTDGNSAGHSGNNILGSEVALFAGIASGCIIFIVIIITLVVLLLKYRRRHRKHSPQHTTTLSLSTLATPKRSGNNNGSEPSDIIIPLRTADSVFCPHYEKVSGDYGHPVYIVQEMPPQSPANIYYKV
The experiment in a line: fluorescence of labelled DOPC protocells modified with the ligand on ephrin B2-expressing cells, against unmodified DOPC protocells (FIGS. 3A-B).

Regarding `CC1(C)S[C@@H]2[C@H](NC(=O)[C@H](N)c3ccc(O)cc3)C(=O)N2[C@H]1C(=O)O` [amoxicillin], the “killing action detected by delta-Ct for PMA treatment” value (from here on “killing action detected by delta-Ct”) in data set [1] is “in the susceptible strain (pACYC184) and not in the resistant strain (pACYC177)”. Also, the MIC against E. coli ER2420/pACYC177 was greater than 128 µg/mL. In data set [2], the “half-life in aqueous media/solution” value was “on the order of a few hours”.

With `CO/N=C(\C(=O)N[C@@H]1C(=O)N2C(C(=O)O)=C(COC(C)=O)CS[C@H]12)c1csc(N)n1` [cefotaxime], in data set [1], the “killing action detected by delta-Ct” value was “in both strains”. Regarding `NC(=O)c1ncn([C@@H]2O[C@H](CO)[C@@H](O)[C@H]2O)n1` [Ribavirin], in data set [3], the circulation half-life is less than 48 h. In addition, in the data set with alphaviruses, the “IC50 values for several alphaviruses” value is on record as “low micromolar range”. Take `O=C(O)c1cn(C2CC2)c2cc(N3CCNCC3)c(F)cc2c1=O` [ciprofloxacin]: the “killing action detected by delta-Ct” value in data set [1] was “rapidly bactericidal to both E. coli at low concentrations”. Also, in the data set with E. coli ER2420/pACYC177, the MIC was less than 0.031 µg/mL. `O=C(O)[C@H]1/C(=C/CO)O[C@@H]2CC(=O)N21` [clavulanic acid]: in data set [2], the “half-life in aqueous media/solution” value is listed as “a few hours”.

In turn, `CO[C@H]1/C=C/O[C@@]2(C)Oc3c(C)c(O)c4c(O)c(c(/C=N/N5CCN(C)CC5)c(O)c4c3C2=O)NC(=O)/C(C)=C\C=C\[C@H](C)[C@H](O)[C@@H](C)[C@@H](O)[C@@H](C)[C@H](OC(C)=O)[C@@H]1C` [rifampicin] returned an MIC in the data set with E. coli ER2420/pACYC177 of 8 µg/mL (≈ 9.72 µM). For `NC[C@H]1O[C@H](O[C@H]2[C@H](O)[C@@H](O[C@H]3O[C@H](CO)[C@@H](O)[C@H](N)[C@H]3O)[C@H](N)C[C@@H]2N)[C@H](O)[C@@H](O)[C@@H]1O` [kanamycin], the MIC in the data set with E. coli ER2420/pACYC177 is greater than 256 µg/mL.

B1: EB2-binding peptide identified via phage display, conjugated to the supported lipid bilayer of DOPC protocells (peptide)
peptide: TGAILHP
modifications: also: conjugated to protocell lipid bilayer, linker not described
notes: also called ephrin B2-targeting peptide; targeting peptide
Regarding B1, the “fold increase in selective binding and internalization” value in data set [4] was 100 fold.
